Reference: ChEMBL document CHEMBL5385904, “Design, synthesis and biological evaluation of seco-DSP/DCK derivatives reversing P-glycoprotein-mediated paclitaxel resistance in A2780/T cells” (Eur J Med Chem, 2023)
Activity calls are given as the source filed them. No cut-off for these calls is given here.

Columns and labels:
A2780 [1] = assay: Cytotoxicity against human A2780 cells assessed as reduction in cell viability at 10 to 20 uM incubated for 48 hrs by MTT assay; type: functional, cell-based; conditions: dose 10-20 µM
[2] = Stability in mouse plasma assessed as parent compound remaining measured at 30 mins by LC-MS/MS analysis; type: ADME, cell-free; conditions: read-out: Stability
[3] = target: T1, ATP-dependent translocase ABCB1 (Homo sapiens, UniProt P08183); assay: Inhibition of P-gp in human A2780/Taxol cells assessed as paclitaxel accumulation in cells by measuring increase in fluorescence intensity at 2.5 to 10 uM incubated for 8 hrs; type: cell-based; conditions: dose 2.5-10 µM
T1 sequence (P08183 whole entry): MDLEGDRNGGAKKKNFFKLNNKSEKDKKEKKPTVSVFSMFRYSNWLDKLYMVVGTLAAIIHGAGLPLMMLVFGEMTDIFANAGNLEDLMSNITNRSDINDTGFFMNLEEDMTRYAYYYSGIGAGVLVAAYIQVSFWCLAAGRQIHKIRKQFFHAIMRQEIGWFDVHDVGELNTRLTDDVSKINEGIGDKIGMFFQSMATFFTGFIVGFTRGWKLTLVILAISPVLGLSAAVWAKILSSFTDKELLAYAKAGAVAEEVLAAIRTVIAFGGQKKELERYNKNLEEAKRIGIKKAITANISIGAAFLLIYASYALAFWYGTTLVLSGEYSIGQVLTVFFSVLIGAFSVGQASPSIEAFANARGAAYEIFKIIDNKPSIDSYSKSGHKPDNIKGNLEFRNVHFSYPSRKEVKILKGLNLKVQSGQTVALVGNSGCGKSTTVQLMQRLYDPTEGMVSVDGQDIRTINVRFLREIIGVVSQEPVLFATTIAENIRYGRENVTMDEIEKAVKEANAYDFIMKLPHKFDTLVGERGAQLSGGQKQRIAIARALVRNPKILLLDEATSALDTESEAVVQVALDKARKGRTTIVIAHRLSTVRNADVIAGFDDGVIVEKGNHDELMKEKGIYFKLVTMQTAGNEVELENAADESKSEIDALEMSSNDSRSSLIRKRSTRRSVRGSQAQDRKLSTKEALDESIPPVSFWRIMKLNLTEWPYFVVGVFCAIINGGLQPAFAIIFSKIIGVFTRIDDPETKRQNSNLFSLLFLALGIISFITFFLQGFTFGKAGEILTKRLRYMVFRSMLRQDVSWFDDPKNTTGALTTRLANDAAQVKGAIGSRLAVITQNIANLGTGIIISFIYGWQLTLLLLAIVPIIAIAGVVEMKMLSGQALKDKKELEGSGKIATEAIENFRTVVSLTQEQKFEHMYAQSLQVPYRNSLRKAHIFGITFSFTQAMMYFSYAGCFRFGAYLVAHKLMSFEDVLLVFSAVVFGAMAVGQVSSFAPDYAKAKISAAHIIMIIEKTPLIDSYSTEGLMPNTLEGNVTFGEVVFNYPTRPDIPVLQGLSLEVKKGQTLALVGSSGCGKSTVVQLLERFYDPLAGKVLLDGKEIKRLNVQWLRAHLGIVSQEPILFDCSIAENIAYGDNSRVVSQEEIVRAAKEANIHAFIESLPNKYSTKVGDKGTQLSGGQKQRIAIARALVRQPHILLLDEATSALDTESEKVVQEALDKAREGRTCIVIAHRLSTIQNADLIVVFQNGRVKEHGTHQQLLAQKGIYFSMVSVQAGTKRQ

[4] = target: T1, ATP-dependent translocase ABCB1; assay: Inhibition of P-gp in human A2780/Taxol cells assessed as paclitaxel accumulation in cells by measuring increase in fluorescence intensity at 5 to 20 uM incubated for 8 hrs; type: cell-based; conditions: dose 5-20 µM
A2780/Taxol [5] = assay: Reversal of multidrug resistance in human A2780/Taxol Cells assessed as reversal fold of paclitaxel IC50 at 10 uM incubated for 48 hrs by MTT assay; type: functional
A2780/Taxol [6] = assay: Cytotoxicity against human A2780/Taxol cells assessed survival rate at 10 uM incubated for 48 hrs by MTT assay; type: functional
hERG (KCNH2) = hERG (KCNH2) (Homo sapiens, UniProt Q12809); assay: Inhibition of hERG at 40 uM by patch clamp assay relative to control; type: toxicity
Sequence of hERG (KCNH2) (Q12809 whole entry): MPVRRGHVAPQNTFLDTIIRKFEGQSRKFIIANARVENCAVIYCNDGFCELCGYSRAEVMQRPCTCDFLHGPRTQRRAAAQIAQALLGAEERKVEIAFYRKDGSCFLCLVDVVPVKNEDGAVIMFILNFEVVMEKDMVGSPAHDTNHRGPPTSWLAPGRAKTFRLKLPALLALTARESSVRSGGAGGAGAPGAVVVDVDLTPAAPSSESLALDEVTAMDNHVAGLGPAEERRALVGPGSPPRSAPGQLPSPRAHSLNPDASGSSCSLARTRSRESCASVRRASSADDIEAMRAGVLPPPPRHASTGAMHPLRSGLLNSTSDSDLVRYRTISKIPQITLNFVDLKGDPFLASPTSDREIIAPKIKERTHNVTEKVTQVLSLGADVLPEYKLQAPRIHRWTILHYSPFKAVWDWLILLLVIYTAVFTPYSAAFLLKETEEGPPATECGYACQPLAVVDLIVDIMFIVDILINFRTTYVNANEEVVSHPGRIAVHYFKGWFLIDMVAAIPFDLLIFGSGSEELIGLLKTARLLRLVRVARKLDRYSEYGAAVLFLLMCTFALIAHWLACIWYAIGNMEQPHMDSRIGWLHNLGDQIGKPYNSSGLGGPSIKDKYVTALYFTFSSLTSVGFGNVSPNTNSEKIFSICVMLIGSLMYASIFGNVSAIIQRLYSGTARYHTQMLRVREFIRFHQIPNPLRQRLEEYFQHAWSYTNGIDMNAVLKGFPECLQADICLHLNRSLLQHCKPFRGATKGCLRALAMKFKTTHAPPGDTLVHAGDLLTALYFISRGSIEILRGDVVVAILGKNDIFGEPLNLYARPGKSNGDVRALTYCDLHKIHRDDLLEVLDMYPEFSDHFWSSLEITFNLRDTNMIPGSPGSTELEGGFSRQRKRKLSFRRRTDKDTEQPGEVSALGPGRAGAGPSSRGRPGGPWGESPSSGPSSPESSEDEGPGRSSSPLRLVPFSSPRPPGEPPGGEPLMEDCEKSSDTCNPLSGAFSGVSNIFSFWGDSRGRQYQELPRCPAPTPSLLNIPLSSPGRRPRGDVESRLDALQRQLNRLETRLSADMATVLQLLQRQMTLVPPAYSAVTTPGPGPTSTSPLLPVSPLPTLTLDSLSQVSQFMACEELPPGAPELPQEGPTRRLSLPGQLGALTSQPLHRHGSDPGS

A2780/Taxol [7] = assay: Reversal of multi-drug resistance in human A2780/Taxol cells incubated for 48 hrs by MTT assay; type: functional, cell-based
[8] = Stability in human microsomal fraction preincubated for 10 mins followed by NADPH addition and measured upto 60 mins by LC-MS/MS analysis; type: ADME, microsomes, Microsome; conditions: time < 70 min, read-out: Stability
A2780 [9] = assay: Reversal of drug-sensitive human A2780 cells at 2.5 to 20 uM incubated for 48 hrs in presence of paclitaxel by MTT assay; type: functional, cell-based; conditions: dose 2.5-20 µM
[10] = target: T1, ATP-dependent translocase ABCB1; assay: Inhibition of P-gp-mediated rhodamine-123 efflux in human A2780/Taxol cells assessed as increase in fluorescence intensity at 10 uM measured upto 60 mins by flow cytometric analysis; type: cell-based; conditions: 1 h
[11] = Stability in mouse plasma assessed as parent compound remaining measured immediately by LC-MS/MS analysis; type: ADME, cell-free; conditions: read-out: Stability
[12] = target: Voltage-gated inwardly rectifying potassium channel KCNH2 (Homo sapiens, UniProt Q12809); assay: Inhibition of hERG by patch clamp assay; type: toxicity
Sequence of Voltage-gated inwardly rectifying potassium channel KCNH2 (Q12809 whole entry): as above

A2780/Taxol [13] = assay: Effect on p-gp expression in human A2780/Taxol cells at 5 to 20 uM by Western blot analysis; type: functional, cell-based; conditions: dose 5-20 µM
[14] = target: T1, ATP-dependent translocase ABCB1; assay: Inhibition of P-gp in human A2780/Taxol cells assessed as paclitaxel accumulation in cells by measuring increase in fluorescence intensity at 2.5 to 20 uM incubated for 8 hrs; type: cell-based; conditions: dose 2.5-20 µM
[15] = Stability in water assessed as parent compound remaining measured at 30 mins by LC-MS/MS analysis; type: physicochemical; conditions: read-out: Stability
[16] = Stability in water assessed as parent compound remaining measured immediately by LC-MS/MS analysis; type: physicochemical; conditions: read-out: Stability
[17] = target: T1, ATP-dependent translocase ABCB1; assay: Inhibition of P-gp in human A2780/Taxol cells assessed as paclitaxel accumulation in cells by measuring increase in fluorescence intensity incubated for 8 hrs; type: cell-based; conditions: at 2.5 to 20 µM, dose 2.5-20 µM
A2780/Taxol [18] = assay: Reversal of multi-drug resistance in human A2780/Taxol cells at 5 to 20 uM incubated for 48 hrs by MTT assay; type: functional, cell-based; conditions: dose 5-20 µM
[19] = target: T1, ATP-dependent translocase ABCB1; assay: Inhibition of P-gp-mediated rhodamine-123 efflux in human A2780/Taxol cells assessed as increase in fluorescence intensity at 10 uM by flow cytometric analysis; type: cell-based; conditions: 1 h, TDE = time-dependent effect, time < 60 min

Q: With `COc1cc(CC(=O)OCc2c(OC(C)C)ccc3c(C)c(Cc4ccccc4)c(=O)oc23)cc(OC)c1OC` as the compound, how does the Activity (A2780 [1]) read?
A: Active

Q: What about the remaining at 0.5 h [2] of the same compound?
A: 0.72%

Q: What about the “inhibition (INH)” value [3] of the same compound?
A: Active

Q: What about the “inhibition (INH)” value [4] of the same compound?
A: Active

Q: And the “fold change (FC)” value (A2780/Taxol [5])?
A: 425

Q: And the Cell survival rate (A2780/Taxol [6])?
A: 81%

Q: And the inhibition at 40 µM (hERG (KCNH2))?
A: 19%

Q: And the IC50 (A2780/Taxol [7])?
A: 10 nM

Q: And the Activity (A2780/Taxol [7]; dose 2.5-20 µM)?
A: Dose-Dependent Effect

Q: And the remaining at 1 h [8]?
A: 0.877%

Q: What about the Activity (A2780 [9]) of the same compound?
A: Active

Q: And the “inhibition (INH)” value [10]?
A: Active

Q: What about the remaining at 0 min [11] of the same compound?
A: 100%

Q: And the IC50 [12]?
A: > 40000 nM

Q: And the Activity (A2780/Taxol [13])?
A: Active

Q: And the “inhibition (INH)” value [14]?
A: Active

Q: What about the remaining at 0.5 h [15] of the same compound?
A: 89.1%

Q: What about the remaining at 0 min [16] of the same compound?
A: 100%

Q: What about the “inhibition (INH)” value [17] of the same compound?
A: Dose-Dependent Effect

Q: And the Activity (A2780/Taxol [18])?
A: Active

Q: And the “inhibition (INH)” value [19]?
A: Tde
